Publication PMC5030160 (Nature chemical biology, 2016)

Biological target: Pdr5 (Saccharomyces cerevisiae, UniProt P33302)
Test: fluorescence transport assay in isolated plasma membranes
Type: biochemical
Details: 150 nM R6G, 10 mM ATP, 5 mM MgCl2, Hepes pH 7.0, 30 °C

Pdr5, sequence (P33302 whole entry): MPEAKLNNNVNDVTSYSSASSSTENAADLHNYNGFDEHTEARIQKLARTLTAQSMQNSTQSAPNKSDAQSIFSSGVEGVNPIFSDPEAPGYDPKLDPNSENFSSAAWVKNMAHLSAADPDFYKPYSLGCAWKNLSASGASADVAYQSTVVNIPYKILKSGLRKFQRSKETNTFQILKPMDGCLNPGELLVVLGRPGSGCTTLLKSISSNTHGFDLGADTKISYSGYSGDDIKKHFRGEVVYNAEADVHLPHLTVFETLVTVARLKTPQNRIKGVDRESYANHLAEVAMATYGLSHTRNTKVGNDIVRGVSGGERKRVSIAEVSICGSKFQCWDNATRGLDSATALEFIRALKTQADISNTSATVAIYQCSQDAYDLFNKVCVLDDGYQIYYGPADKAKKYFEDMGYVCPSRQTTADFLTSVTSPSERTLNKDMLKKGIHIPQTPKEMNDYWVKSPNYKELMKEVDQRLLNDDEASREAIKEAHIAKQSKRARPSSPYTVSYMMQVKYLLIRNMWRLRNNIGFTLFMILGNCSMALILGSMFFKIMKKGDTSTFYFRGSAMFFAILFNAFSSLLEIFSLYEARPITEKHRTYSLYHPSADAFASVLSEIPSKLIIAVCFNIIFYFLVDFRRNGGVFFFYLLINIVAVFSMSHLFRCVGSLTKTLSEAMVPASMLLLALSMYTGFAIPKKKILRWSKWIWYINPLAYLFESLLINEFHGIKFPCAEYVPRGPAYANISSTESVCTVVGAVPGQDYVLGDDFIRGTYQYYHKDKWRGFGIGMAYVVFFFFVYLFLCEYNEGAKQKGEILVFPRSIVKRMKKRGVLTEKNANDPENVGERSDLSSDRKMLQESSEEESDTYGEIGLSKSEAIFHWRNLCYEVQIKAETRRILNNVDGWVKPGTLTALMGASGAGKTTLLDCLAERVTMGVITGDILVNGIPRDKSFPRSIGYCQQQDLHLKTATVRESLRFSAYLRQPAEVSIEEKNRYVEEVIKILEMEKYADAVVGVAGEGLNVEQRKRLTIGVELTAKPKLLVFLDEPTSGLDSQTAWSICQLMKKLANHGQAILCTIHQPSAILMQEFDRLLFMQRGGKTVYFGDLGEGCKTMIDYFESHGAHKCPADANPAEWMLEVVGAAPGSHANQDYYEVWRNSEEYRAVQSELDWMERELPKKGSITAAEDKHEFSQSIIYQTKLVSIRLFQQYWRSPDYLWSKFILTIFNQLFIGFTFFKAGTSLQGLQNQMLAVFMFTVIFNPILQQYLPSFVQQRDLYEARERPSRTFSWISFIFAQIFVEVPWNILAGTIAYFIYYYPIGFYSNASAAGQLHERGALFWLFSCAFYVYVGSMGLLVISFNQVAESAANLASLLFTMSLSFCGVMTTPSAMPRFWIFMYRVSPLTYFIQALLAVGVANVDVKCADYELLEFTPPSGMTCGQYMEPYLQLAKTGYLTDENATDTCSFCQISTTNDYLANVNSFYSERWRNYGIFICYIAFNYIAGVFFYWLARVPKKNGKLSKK

## CCN=c1cc2oc3cc(NCC)c(C)cc3c(-c3ccccc3C(=O)OCC)c-2cc1C [rhodamine-6G]
  fluorescence transport assay in isolated plasma membranes: Active transport of rhodamine-6G (R6G) was determined according to a standard protocol
